According to ChEMBL document CHEMBL3045679, “Microwave-assisted synthesis and pharmacological studies of novel 5-deazaalloxazine derivatives” (2012):
Values after ≈ are worked out from the molar mass of the structure shown. Active and inactive are the calls of the source. No cut-off for these calls is given here.

Assays:
Lipomyces lipofer [1] = test: Antifungal activity against Lipomyces lipofer NCIM 3252 at 1000 ug/disk after 72 hr by disk diffusion method; format: functional; details: NCIM 3252, 72 h, read-out: DIZ
Lipomyces lipofer [2] = test: Antifungal activity against Lipomyces lipofer NCIM 3252 at 500 ug/disk after 72 hr by disk diffusion method; format: functional
Candida albicans [3] = test: Antifungal activity against Candida albicans NCIM 3471 at 1000 ug/disk after 72 hr by disk diffusion method; format: functional; details: NCIM 3471, 72 h, read-out: DIZ
Candida albicans [4] = test: Antifungal activity against Candida albicans NCIM 3471 at 500 ug/disk after 72 hr by disk diffusion method; format: functional
Rhodotorula mucilaginosa [5] = test: Antifungal activity against Rhodotorula mucilaginosa NCIM 3174 at 1000 ug/disk after 72 hr by disk diffusion method; format: functional; details: NCIM 3174, 72 h, read-out: DIZ
Rhodotorula mucilaginosa [6] = test: Antifungal activity against Rhodotorula mucilaginosa NCIM 3174 at 500 ug/disk after 72 hr by disk diffusion method; format: functional
Aspergillus flavus [7] = test: Antifungal activity against Aspergillus flavus NCIM 535 at 1000 ug/disk after 72 hr by disk diffusion method; format: functional; details: NCIM 535, 72 h, read-out: DIZ
Aspergillus flavus [8] = test: Antifungal activity against Aspergillus flavus NCIM 535 at 500 ug/disk after 72 hr by disk diffusion method; format: functional; details: NCIM 535, 72 h, read-out: DIZ
Aspergillus niger [9] = test: Antifungal activity against Aspergillus niger NCIM 1196 at 1000 ug/disk after 72 hr by disk diffusion method; format: functional
Aspergillus niger [10] = test: Antifungal activity against Aspergillus niger NCIM 1196 at 500 ug/disk after 72 hr by disk diffusion method; format: functional
Penicillium chrysogenum [11] = test: Antifungal activity against Penicillium chrysogenum NCIM 707 at 1000 ug/disk after 72 hr by disk diffusion method; format: functional; details: NCIM 707, 72 h, read-out: DIZ
Penicillium chrysogenum [12] = test: Antifungal activity against Penicillium chrysogenum NCIM 707 at 500 ug/disk after 72 hr by disk diffusion method; format: functional
Streptomyces albus [13] = test: Antibacterial activity against Streptomyces albus NCIM 2178 at 1000 ug/disk after 24 hr by disk diffusion method; format: functional; details: NCIM 2178, 24 h, read-out: DIZ
Streptomyces albus [14] = test: Antibacterial activity against Streptomyces albus NCIM 2178 at 500 ug/disk after 24 hr by disk diffusion method; format: functional, organism-based
Bacillus cereus [15] = test: Antibacterial activity against Bacillus cereus NCIM 2155 at 1000 ug/disk after 24 hr by disk diffusion method; format: functional; details: NCIM 2155, 24 h, read-out: DIZ
Bacillus cereus [16] = test: Antibacterial activity against Bacillus cereus NCIM 2155 at 500 ug/disk after 24 hr by disk diffusion method; format: functional; details: NCIM 2155, 24 h, read-out: DIZ
Bacillus subtilis [17] = test: Antibacterial activity against Bacillus subtilis NCIM 2063 at 1000 ug/disk after 24 hr by disk diffusion method; format: functional; details: NCIM 2063, 24 h, read-out: DIZ
Bacillus subtilis [18] = test: Antibacterial activity against Bacillus subtilis NCIM 2063 at 500 ug/disk after 24 hr by disk diffusion method; format: functional
Klebsiella aerogenes [19] = test: Antibacterial activity against Enterobacter aerogenes NCIM 2239 at 1000 ug/disk after 24 hr by disk diffusion method; format: functional; details: NCIM 2239, 24 h, read-out: DIZ
Klebsiella aerogenes [20] = test: Antibacterial activity against Enterobacter aerogenes NCIM 2239 at 500 ug/disk after 24 hr by disk diffusion method; format: functional
Pseudomonas aeruginosa [21] = test: Antibacterial activity against Pseudomonas aeruginosa NCIM 2200 at 1000 ug/disk after 24 hr by disk diffusion method; format: functional; details: NCIM 2200, 24 h, read-out: DIZ
Pseudomonas aeruginosa [22] = test: Antibacterial activity against Pseudomonas aeruginosa NCIM 2200 at 500 ug/disk after 24 hr by disk diffusion method; format: functional
Escherichia coli [23] = test: Antibacterial activity against Escherichia coli NCIM 2065 at 1000 ug/disk after 24 hr by disk diffusion method; format: functional; details: NCIM 2065, 24 h, read-out: DIZ
Escherichia coli [24] = test: Antibacterial activity against Escherichia coli NCIM 2065 at 500 ug/disk after 24 hr by disk diffusion method; format: functional; details: NCIM 2065, 24 h, read-out: DIZ
Bacillus subtilis [25] = test: Antibacterial activity against Bacillus subtilis NCIM 2063 after 24 hr by broth dilution assay; format: functional; details: NCIM 2063, 24 h
Klebsiella aerogenes [26] = test: Antibacterial activity against Enterobacter aerogenes NCIM 2239 after 24 hr by broth dilution assay; format: functional; details: NCIM 2239, 24 h
Pseudomonas aeruginosa [27] = test: Antibacterial activity against Pseudomonas aeruginosa NCIM 2200 after 24 hr by broth dilution assay; format: functional; details: NCIM 2200, 24 h
Escherichia coli [28] = test: Antibacterial activity against Escherichia coli NCIM 2065 after 24 hr by broth dilution assay; format: functional; details: NCIM 2065, 24 h
Lipomyces lipofer [29] = test: Antifungal activity against Lipomyces lipofer NCIM 3252 after 72 hr by broth dilution assay; format: functional; details: NCIM 3252, 72 h
Candida albicans [30] = test: Antifungal activity against Candida albicans NCIM 3471 after 72 hr by broth dilution assay; format: functional; details: NCIM 3471, 72 h
Rhodotorula mucilaginosa [31] = test: Antifungal activity against Rhodotorula mucilaginosa NCIM 3174 after 72 hr by broth dilution assay; format: functional; details: NCIM 3174, 72 h
Aspergillus flavus [32] = test: Antifungal activity against Aspergillus flavus NCIM 535 after 72 hr by broth dilution assay; format: functional; details: NCIM 535, 72 h
Aspergillus niger [33] = test: Antifungal activity against Aspergillus niger NCIM 1196 after 72 hr by broth dilution assay; format: functional; details: NCIM 1196, 72 h
Penicillium chrysogenum [34] = test: Antifungal activity against Penicillium chrysogenum NCIM 707 after 72 hr by broth dilution assay; format: functional; details: NCIM 707, 72 h
Streptomyces albus [35] = test: Antibacterial activity against Streptomyces albus NCIM 2178 after 24 hr by broth dilution assay; format: functional; details: NCIM 2178, 24 h
Bacillus cereus [36] = test: Antibacterial activity against Bacillus cereus NCIM 2155 after 24 hr by broth dilution assay; format: functional; details: NCIM 2155, 24 h

Compound	zone of inhibition at 1000 µg/disc (Lipomyces lipofer [1])	zone of inhibition at 1000 µg/disc (Candida albicans [3])	zone of inhibition at 1000 µg/disc (Rhodotorula mucilaginosa [5])	zone of inhibition at 1000 µg/disc (Aspergillus flavus [7])	zone of inhibition at 500 µg/disc (Aspergillus flavus [8])	diameter of the inhibition zone (DIZ) (Aspergillus niger [10])	zone of inhibition at 1000 µg/disc (Penicillium chrysogenum [11])	zone of inhibition at 1000 µg/disc (Streptomyces albus [13])	diameter of the inhibition zone (DIZ) (Streptomyces albus [14])	zone of inhibition at 1000 µg/disc (Bacillus cereus [15])	zone of inhibition at 500 µg/disc (Bacillus cereus [16])	zone of inhibition at 1000 µg/disc (Bacillus subtilis [17])	zone of inhibition at 1000 µg/disc (Klebsiella aerogenes [19])	zone of inhibition at 1000 µg/disc (Pseudomonas aeruginosa [21])	zone of inhibition at 1000 µg/disc (Escherichia coli [23])	zone of inhibition at 500 µg/disc (Escherichia coli [24])	MIC (Bacillus subtilis [25])	MIC (Klebsiella aerogenes [26])	MIC (Pseudomonas aeruginosa [27])	MIC (Escherichia coli [28])	also measured
Cc1cccc2cc3c(=O)[nH]c(=O)[nH]c3nc12	13 mm	11 mm	13 mm	13 mm	9 mm	inactive	9 mm	10 mm	inactive	12 mm	11 mm	10 mm	13 mm	11 mm	15 mm	14 mm	31.2 mg/L (≈ 137 µM)	15.6 mg/L (≈ 68.7 µM)	7.8 mg/L (≈ 34.3 µM)	3.9 mg/L (≈ 17.2 µM)	diameter of the inhibition zone (DIZ) (Lipomyces lipofer [2]): inactive; diameter of the inhibition zone (DIZ) (Candida albicans [4]): inactive; diameter of the inhibition zone (DIZ) (Rhodotorula mucilaginosa [6]): inactive; diameter of the inhibition zone (DIZ) (Aspergillus niger [9]): inactive; diameter of the inhibition zone (DIZ) (Penicillium chrysogenum [12]): inactive; diameter of the inhibition zone (DIZ) (Bacillus subtilis [18]): inactive; diameter of the inhibition zone (DIZ) (Klebsiella aerogenes [20]): inactive; diameter of the inhibition zone (DIZ) (Pseudomonas aeruginosa [22]): inactive; MIC (Lipomyces lipofer [29]): 31.2 mg/L (≈ 137 µM); MIC (Candida albicans [30]): 31.2 mg/L (≈ 137 µM); MIC (Rhodotorula mucilaginosa [31]): 15.6 mg/L (≈ 68.7 µM); MIC (Aspergillus flavus [32]): 7.8 mg/L (≈ 34.3 µM); MIC (Aspergillus niger [33]): 125 mg/L (≈ 550 µM); MIC (Penicillium chrysogenum [34]): 62.5 mg/L (≈ 275 µM); MIC (Streptomyces albus [35]): 62.5 mg/L (≈ 275 µM); MIC (Bacillus cereus [36]): 15.6 mg/L (≈ 68.7 µM)
O=c1[nH]c(=O)c2cc3ccccc3nc2[nH]1	11 mm	12 mm	11 mm	14 mm	11 mm	inactive	13 mm	13 mm	inactive	13 mm	9 mm	11 mm	11 mm	14 mm	13 mm	11 mm	15.6 mg/L (≈ 73.2 µM)	31.2 mg/L (≈ 146 µM)	31.2 mg/L (≈ 146 µM)	3.9 mg/L (≈ 18.3 µM)	zone of inhibition at 500 µg/disc (Lipomyces lipofer [2]; NCIM 3252, 72 h, read-out: DIZ): 9 mm; zone of inhibition at 500 µg/disc (Candida albicans [4]; NCIM 3471, 72 h, read-out: DIZ): 9 mm; zone of inhibition at 500 µg/disc (Rhodotorula mucilaginosa [6]; NCIM 3174, 72 h, read-out: DIZ): 10 mm; zone of inhibition at 1000 µg/disc (Aspergillus niger [9]; NCIM 1196, 72 h, read-out: DIZ): 10 mm; zone of inhibition at 500 µg/disc (Penicillium chrysogenum [12]; NCIM 707, 72 h, read-out: DIZ): 8 mm; zone of inhibition at 500 µg/disc (Bacillus subtilis [18]; NCIM 2063, 24 h, read-out: DIZ): 8 mm; zone of inhibition at 500 µg/disc (Klebsiella aerogenes [20]; NCIM 2239, 24 h, read-out: DIZ): 8 mm; zone of inhibition at 500 µg/disc (Pseudomonas aeruginosa [22]; NCIM 2200, 24 h, read-out: DIZ): 10 mm; MIC (Lipomyces lipofer [29]): 62.5 mg/L (≈ 293 µM); MIC (Candida albicans [30]): 15.6 mg/L (≈ 73.2 µM); MIC (Rhodotorula mucilaginosa [31]): 7.8 mg/L (≈ 36.6 µM); MIC (Aspergillus flavus [32]): 3.9 mg/L (≈ 18.3 µM); MIC (Aspergillus niger [33]): 125 mg/L (≈ 586 µM); MIC (Penicillium chrysogenum [34]): 7.8 mg/L (≈ 36.6 µM); MIC (Streptomyces albus [35]): 31.2 mg/L (≈ 146 µM); MIC (Bacillus cereus [36]): 31.2 mg/L (≈ 146 µM)
